Data: patent US8623885B2, “Fused tricyclic dual inhibitors of CDK 4/6 and FLT3” (Amgen Inc., priority 2011, dated 2014)
“Also recorded” adds a separate entry of the source.

Experiments:
neointima formation = settings: animal models; cited from earlier work
[1] = tested on: MOLM13 subcutaneous xenograft tumors; assay: Tumor growth inhibition in AML MOLM13 xenograft tumors; format: in vivo, CrTac:NCR-Foxn1nu nude mice
Experimental: The AML cell line, MOLM13, (obtained from American Type Culture Collection, Manassas, Va., USA) was cultured in RPMI-1640 cell growth medium containing 10% fetal bovine serum (commercially obtained from Invitrogen, Carlsbad, Calif. USA). This cell line expresses CDK4/6, one copy of wild type FLT3 kinase and one copy of FLT3-ITD, which results in constitutive activation of FLT3 activity. Therefore, the activity of Example 5 against both FLT3 and CDK4/6 can be tested in this tumor cell. Tumor cells (7.5 million) were injected subcutaneously onto the right flank of CrTac:NCR-Foxn1^nu nude mice (commercially available from Taconic Farms, Inc, Hudson, N.Y. USA). Tumors were allowed to grow for 6 days. […] Tumors were measured every other day using two-dimensional calipers and tumor volumes were estimated using the equation Width^2×Length×0.5. […] Statistical significance was evaluated using RMANOVA on log transformed tumor volume with baseline as covariate.

MOLM13 cells = assay: [14C]-thymidine incorporation cell proliferation assay, MOLM13; format: cell-based, human; settings: Homo sapiens, MOLM-13, 72 hour incubation
Experimental: The cell proliferation inhibition potency of the CDK4/6-FLT3 inhibitors was determined by using a [^14C]-thymidine incorporation assay. Exponentially growing cells (MOLM-13, Colo-205, etc.) were seeded in a 96-well Cytostar T plate (GE Healthcare Biosciences) at a density of 5×10^3 cells/well and incubated overnight. Serially diluted compounds and 0.1 μCi of [^14C]-thymidine (GE Healthcare Biosciences) were added to each well on the following day. After 72 hour incubation, isotope incorporation was determined with a β plate counter (Wallac). MOLM13 is a human AML tumor cell line expressing FLT3, FLT3^ITD and wild type Rb.
(§1) IC50 values of the compounds in the above assays were determined by non-linear regression analysis using Prism (GraphPad Software).

[2] = molecular target: FLT3 enzyme (GST-FLT3 fusion) (Homo sapiens (Human), UniProt P36888); assay: FLT3 HTRF kinase assay; format: biochemical; settings: 116 μM ATP
Experimental: The FLT3 inhibitory activity of the CDK4/6-FLT3 inhibitors was determined with a HTRF kinase assay. The FLT3 enzyme (GST-FLT3 fusion) was purchased from Carna Biosciences. An ULight-labeled synthetic peptide derived from human Janus kinase 1 (aa1015-1027, ULight-JAK1, PerkinElmer) was utilized as the phosphoacceptor substrate. The assay was conducted in a 384-well white OptiPlate (PerkinElmer). The 20 μL reaction mixture contained 50 nM ULight-JAK1, 116 μM ATP, 0.0385 ng/μL FLT3 and dilutions of test compounds in the kinase buffer (50 mM Hepes, pH 7.6, 1 mM EGTA, 10 mM MgCl2, 2 mM DTT, and 0.005% Tween 20). The reaction was allowed to proceed for 1 hour at room temperature and was stopped by adding 20 μL of 10 mM EDTA, 2 nM LANCE® Eu-W1024 anti-phospho-tyrosine antibody in LANCE® detection buffer (PerkinElmer). The plates were incubated at room temperature for 2 hours after addition of detection reagents and then read on an Envision multimode reader (PerkinElmer).
as §1

CDK4/Cyclin D1 = CDK4/Cyclin D1 (Homo sapiens (Human), UniProt P11802); assay: CDK4 filtration kinase assay; format: biochemical; settings: CDK4/Cyclin D1, Rb fragment substrate, [33P]-ATP filtration assay
Experimental: The CDK4 and CDK1 inhibitory activity of the CDK4/6-FLT3 inhibitors was determined with a filtration kinase assay. The compounds, kinase and substrate diluted in the kinase buffer (20 mM Tris, pH7.4, 50 mM NaCl, 1 mM DTT, 0.1% BSA) were sequentially added to a 96-well Multiscreen HTS filtration plate (Millipore). The final 100 μL reaction mixture in each well contained 0.3 μg of CDK4/Cyclin D1 or CDK1/Cyclin B (Cell Signaling Technology), 1 μg of Rb fragment (aa773-928, Millipore) for the CDK4 assay or 5 μg of histone H1 for the CDK1 assay and 1 μCi of [^33P]-ATP. The mixture was incubated at room temperature for 1 hour. The proteins in the reaction were then precipitated and washed with cold TCA solution using an aspiration/filtration vacuum system. The plates were dried at room temperature, and the retained radioactivity was measured by scintillation counting.
as §1

[3] = tested on: Colo205 human colon carcinoma xenograft tumors; assay: Tumor growth inhibition in Colo205 xenograft tumors; format: in vivo, CrTac:NCR-Foxn1nu nude mice
Experimental: The activity of Example 5 was evaluated in the human colon carcinoma, Colo205, xenograft tumor model. This cell line expresses CDK4/6 but not FLT3. Therefore, this system will measure the activity of Example 5 against CDK4/6. Colo205 cells (obtained from American Type Culture Collection, Manassas, Va., USA) were cultured in DMEM cell growth medium containing 10% fetal bovine serum (commercially obtained from Invitrogen, Carlsbad, Calif. USA). Two million cells were innoculated on the right flank of CrTac:NCR-Foxn1^nu nude mice (commercially available from Taconic Farms, Inc, Hudson, N.Y. USA) and allowed to grow for 13 days. Mice were then distributed into groups of 10 mice based on ranking of initial tumor volume to achieve groups in which the average tumor size was 170 mm^3 Example 5 was formulated in 2% HPMC (Hypermellose; HY122-13; commercially available from Spectrum Chemical Manufacturing Gardena, Calif. USA)/1% Tween-80 (Crillet 4 HP; commercially available from Croda, Inc Edison, N.J. USA) and dosed daily or twice daily 6 hours apart for a total of 10 days with 12.5 mg/kg, 25 mg/kg, 37.5 mg/kg, or 50 mg/kg. Tumors were measured every other day using two-dimensional calipers and tumor volumes were estimated using the equation Width^2×Length×0.5. […] Statistical significance was evaluated using RMANOVA on log transformed tumor volume with baseline as covariate.

Chain of FLT3 enzyme (GST-FLT3 fusion) (P36888 27-993): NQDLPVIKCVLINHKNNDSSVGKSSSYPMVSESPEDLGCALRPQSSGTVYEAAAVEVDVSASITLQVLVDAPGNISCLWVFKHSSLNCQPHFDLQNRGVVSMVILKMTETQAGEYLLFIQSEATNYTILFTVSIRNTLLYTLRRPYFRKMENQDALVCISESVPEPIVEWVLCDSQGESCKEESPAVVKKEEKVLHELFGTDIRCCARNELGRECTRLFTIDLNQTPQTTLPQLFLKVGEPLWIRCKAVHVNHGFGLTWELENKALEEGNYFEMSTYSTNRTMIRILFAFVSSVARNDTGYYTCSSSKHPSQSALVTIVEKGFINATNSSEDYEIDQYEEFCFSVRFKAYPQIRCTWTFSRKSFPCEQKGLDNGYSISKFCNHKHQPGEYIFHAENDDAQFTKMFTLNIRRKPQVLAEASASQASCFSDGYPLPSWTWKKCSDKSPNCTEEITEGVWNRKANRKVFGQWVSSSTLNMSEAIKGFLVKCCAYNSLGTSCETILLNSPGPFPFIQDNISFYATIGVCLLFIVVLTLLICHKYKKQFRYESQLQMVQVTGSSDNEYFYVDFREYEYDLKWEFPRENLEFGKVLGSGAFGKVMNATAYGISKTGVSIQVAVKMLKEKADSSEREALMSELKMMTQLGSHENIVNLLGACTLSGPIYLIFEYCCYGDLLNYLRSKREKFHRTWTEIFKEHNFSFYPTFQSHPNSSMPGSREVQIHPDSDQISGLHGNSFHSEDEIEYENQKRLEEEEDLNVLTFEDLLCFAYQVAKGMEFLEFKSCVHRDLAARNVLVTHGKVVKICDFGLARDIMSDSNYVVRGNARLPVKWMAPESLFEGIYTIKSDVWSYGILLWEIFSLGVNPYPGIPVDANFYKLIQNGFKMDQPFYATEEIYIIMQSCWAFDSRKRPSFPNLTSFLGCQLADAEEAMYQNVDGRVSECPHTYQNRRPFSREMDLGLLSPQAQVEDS
Chain of CDK4/Cyclin D1 (P11802 whole entry, the tested form may be a part): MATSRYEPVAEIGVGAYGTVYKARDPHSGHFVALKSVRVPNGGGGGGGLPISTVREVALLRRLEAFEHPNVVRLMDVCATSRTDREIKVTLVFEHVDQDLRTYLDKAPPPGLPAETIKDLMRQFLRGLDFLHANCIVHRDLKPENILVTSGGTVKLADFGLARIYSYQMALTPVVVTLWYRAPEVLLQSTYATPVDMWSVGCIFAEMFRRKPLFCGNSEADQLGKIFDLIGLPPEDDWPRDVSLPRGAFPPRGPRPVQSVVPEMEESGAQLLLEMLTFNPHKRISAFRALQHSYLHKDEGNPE
Chain of CDK4/Cyclin D1 (P24385 whole entry partner, the tested form may be a part): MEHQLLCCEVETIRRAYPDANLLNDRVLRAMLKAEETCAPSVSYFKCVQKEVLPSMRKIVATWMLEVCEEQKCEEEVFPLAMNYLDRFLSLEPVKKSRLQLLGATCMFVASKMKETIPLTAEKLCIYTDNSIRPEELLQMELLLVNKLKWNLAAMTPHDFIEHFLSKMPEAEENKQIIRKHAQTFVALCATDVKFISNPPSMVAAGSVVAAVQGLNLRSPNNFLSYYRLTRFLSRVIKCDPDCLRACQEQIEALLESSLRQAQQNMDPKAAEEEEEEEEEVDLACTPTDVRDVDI

IC50 (MOLM13 cells) [nM] | IC50 [2] [nM] | IC50 (CDK4/Cyclin D1) [nM] | Compound | inhibition of neointima formation (neointima formation) | inhibition of tumor growth (tumor volume) ([1]; 6.25-150 mg/kg, twice daily (BID), 10 days) | tumor volume versus vehicle treated group (RMANOVA) ([1]; all doses) | inhibition of tumor growth (tumor volume) ([3]; 12.5-50 mg/kg, twice daily (BID), 10 days) | tumor volume versus vehicle treated group (RMANOVA) ([3]; all doses)
 |  |  | COc1ccc(CNc2nc(N(CCO)CCO)nc3c2ncn3C(C)C)cc1 [CVT-313] | significant inhibition of neointima formation |  |  |  | 
19 | 1.5 | 2.4 | C[C@H]1CC[C@H](n2c3cnccc3c3cnc(Nc4ccc5c(n4)CCN(C(=O)CO)C5)nc32)CC1 [Example 5, 2-hydroxy-1-(2-((9-((1r,4r)-4-methylcyclohexyl)-9H-pyrido[4′,3′:4,5]pyrrolo[2,3-d]pyrimidin-2-yl)amino)-7,8-dihydro-1,6-naphthyridin-6(5H)-yl)ethanone] |  | dose dependent anti-tumor activity; also recorded: Dose-dependent inhibition of tumor growth | statistically different from the vehicle treated group | dose dependent anti-tumor activity; also recorded: Dose-dependent inhibition of tumor growth | statistically different from the vehicle treated group
